Where “and” joins values, the source holds several entries; their conditions need not be identical. Identical values can stand only once.
Test system: diet-induced NASH obese insulin resistant mice
Assay: DIN mouse model: liver weight and liver lipid levels
Assay type: in vivo
Design: liver weight: unit not given here
Conditions: 20 mg/kg
Procedure: Male C57Bl/6J mice (8 weeks old) were housed in enriched ventilated cages (31×12.5×12.7 cm) throughout the experimental phase. Animals' cages litters were changed at least once a week. Animal were housed 5 per cage on inverted 12-hour light cycle (at 09:00 am lights off), 22±2° C. and 55±10% relative humidity. The acclimation period was 20 days. During the acclimation period, all mice were fed a standard diet (RM1 (E) 801492, SDS) and tap water ad libitum. After the acclimation period, mice were fed with the DIN diet (60% fat, cholesterol enriched) and fructose-enriched tap water ad libitum until the end of the experiment.
At 6 weeks of diet, mice were 4-hour fasted (09:00 am to 1:00 pm) and blood (150 μl/EDTA) was collected at 01:00 pm by retro-orbital bleeding under isoflurane anesthesia. Mice were then allocated in 2 homogenous groups (n=12/group) according to their plasma levels of ALT (average levels: 685U/L), AST (average levels: 627U/L) and HOMA-IR index (average value: 4.7), into 2 homogenous groups (see values at day 0 in Tables 15A and 15B ALT/AST and Tables 16A and 16B for HOMA-IR). Mice were then treated once daily by oral gavage with vehicle (Group 1) or Compound #37 at 20 mg/kg (Group 2) for 70 days.
To investigate whether Compound #37 improves pre-existing steatosis/NASH pathology, a study was conducted using a 16-week diet-induced NASH mouse model. In this model, mice develop steatosis that progresses with inflammation and fibrosis that mimic many of the observed pathologies in human nonalcoholic fatty liver disease (NAFLD) and NASH (Hebbard & George, 2010). For 6 weeks, mice were fed a high-fat, high-cholesterol diet and provided drinking water containing fructose to induce liver pathology (Charlton et al, 2011). After 6 weeks, the mice were divided into 2 groups with similar mean aspartate aminotransferase (AST) and alanine aminotransferase (ALT) values (n=12 mice), although it should be noted that AST and ALT concentrations within both groups were higher and with greater variability than anticipated (e.g., mean ALT 677 U/L [SD, 401 U/L] in the vehicle control group and 693 U/L [SD, 365 U/L] in the Compound #37 group). After the animals were divided into 2 groups, the diet was continued for 10 additional weeks during which time 1 group received vehicle and the other was treated with 20 mg/kg/day Compound #37.

`CC(C)Cc1cc(-c2nc(-c3ccc(NS(=O)(=O)C(F)(F)F)cc3Cl)cs2)ccn1` [Compound 37, N-(3-chloro-4-(2-(2-isobutylpyridin-4-yl)thiazol-4-yl)phenyl)-1,1,1-trifluoromethanesulfonamide] was tested, and the Liver weight increase (70 days) was 21%, the “Hepatic total cholesterol levels increase” value (70 days, p<0.05 vs. vehicle) was 17% and the liver cholesterol (group mean, n 11) was 28.2 µg/mg. For the same molecule, the liver fatty acids (group mean, n 11) was 63.2 nmol/mg, the liver triglycerides (group mean, n 11) was 133.8 µg/mg and the liver weight (group mean, n 11) was 2.56. The liver cholesterol (individual animals) was 27.4 µg/mg and 32.2 µg/mg and 25.8 µg/mg and 28.4 µg/mg and 28.3 µg/mg and 27.1 µg/mg and 29.9 µg/mg and 20.7 µg/mg and 31.3 µg/mg and 34.0 µg/mg and 25.3 µg/mg, the liver fatty acids (individual animals) was 72.2 nmol/mg and 67.2 nmol/mg and 56.2 nmol/mg and 82.8 nmol/mg and 56.8 nmol/mg and 47.8 nmol/mg and 68.4 nmol/mg and 43.9 nmol/mg and 70.0 nmol/mg and 76.7 nmol/mg and 53.2 nmol/mg and the liver triglycerides (individual animals) was 262.5 µg/mg and 203.3 µg/mg and 72.2 µg/mg and 162.3 µg/mg and 101.9 µg/mg and 53.6 µg/mg and 178.1 µg/mg and 48.9 µg/mg and 91.5 µg/mg and 195 µg/mg and 102.6 µg/mg. The liver weight (individual animals) was 3.24 and 2.72 and 1.97 (2×) and 2.74 and 2.39 and 2.54 and 2.44 and 2.67 and 3.05 and 2.40.
